Measurements reported in patent US20140302568A1, “POLYOL OXIDASE” (NATIONAL UNIVERSITY CORPORATION KAGAWA UNIVERSITY, priority 2011, published 2014).

Assays:
[1] = system: polyol oxidase derived from Penicillium sp. KU-1; assay: Substrate specificity of the partially purified polyol oxidase (peroxidase method); format: biochemical; details: for Relative activity (%): substrate specificity, partially purified enzyme, relative to D-arabitol = 100
Description: As the measurement method for the oxidase activity, a peroxidase method was used. When a D-glucose oxidase is taken as an example, the principle of the peroxidase method is as follows.
In this method, the activity is measured by colorimetric determination of hydrogen peroxide generated by an oxidation reaction. When hydrogen peroxide generated by an oxidation reaction with a substrate is reacted with a peroxidase, an oxidation reaction of ABTS is catalyzed to generate oxidized ABTS. The oxidized ABTS develops a blue color, and therefore, by visual observation or measurement of absorbance at 420 nm, the oxidase activity can be detected. In the measurement of the activity, the crude extract solution obtained by extraction from the wheat bran culture medium was used. Further, as the control, a reaction solution in which water was added in place of the substrate was also prepared in the same manner. After a reaction was allowed to proceed at room temperature, whether or not the color was developed was confirmed by visual observation, and the crude extract solution added to the reaction solution in which the color was developed was determined to have an oxidase activity.
The measurement of the activity of the present enzyme was performed by measuring an increase in absorbance at 420 nm using the same peroxidase method as described above. The enzymatic reaction was initiated by adding D-mannitol, and the absorbance was measured over time for 10 minutes under the reaction conditions of 30° C. using a spectrophotometer U-2010 manufactured by Hitachi Co., Ltd. The reaction was performed by preparing the reaction solution so that the total amount thereof was 1 mL as shown in Table 11. “1 unit” was defined as the amount of the enzyme required to increase the absorbance at 420 nm by 1 for 1 minute.
Among the polyols used in the assay, the activity of the enzyme was high for D-arabitol, erythritol, D-mannitol, and D-sorbitol, which are listed in descending order of activity, and a high activity was not observed for the other polyols.

[2] = system: polyol oxidase of the A strain; assay: Screening for oxidase activity, crude extract of A strain (peroxidase method, visual colour development); format: biochemical, Penicillium sp. KU-1 (A strain); details: substrate 0.5 M, room temperature
Description: (§1) Isolated microbial cells were inoculated into 5 mL of PDB, followed by shaking incubation at 28° C. for 1 week. In a 200-mL Erlenmeyer flask, 6 g of wheat bran and 15 mL of water were added and mixed with each other, and the resulting mixture was sterilized in an autoclave and used as a wheat bran culture medium. To the thus prepared wheat bran culture medium, the liquid-cultured microbial cells were added together with the total amount of the culture solution, and the resulting mixture was incubated at 28° C. After two-week incubation, an extract solution was prepared by a method described below and used for the measurement of the oxidase activity.
(§2) To the wheat bran culture medium in which the microbial cells were grown, 20 mL of a 10 mM potassium phosphate buffer (pH 7.0) was added, and the cells were well immersed therein and left to stand on ice for 1 hour, and then, the mixture was squeezed with a gauze pad. Thereafter, centrifugation was performed at 4° C. and 12,000 rpm for 18 minutes to remove fine particles, and the resulting solution was used as a crude extract solution.
(§3) In primary screening, a sugar mixed solution and an amino acid mixed solution were used in consideration of efficiency. The crude extract solution in which the activity was detected by the primary screening was subjected to secondary screening using the respective substrates individually at 0.5 M, and the substrate was specified.
(§4) As the measurement method for the oxidase activity, a peroxidase method was used. […]
(§5) In this method, the activity is measured by colorimetric determination of hydrogen peroxide generated by an oxidation reaction. […] The oxidized ABTS develops a blue color, and therefore, by visual observation or measurement of absorbance at 420 nm, the oxidase activity can be detected. […] After a reaction was allowed to proceed at room temperature, whether or not the color was developed was confirmed by visual observation, and the crude extract solution added to the reaction solution in which the color was developed was determined to have an oxidase activity.

[3] = system: polyol oxidase of the B strain; assay: Screening for oxidase activity, crude extract of B strain (peroxidase method, visual colour development); format: biochemical, B strain (filamentous fungus); details: substrate 0.5 M, room temperature
Description: as §1, §2, §3, §4, §5

[4] = system: D-glucose oxidase of the C strain; assay: Screening for oxidase activity, crude extract of C strain (peroxidase method, visual colour development); format: biochemical, Aspergillus niger (C strain); details: substrate 0.5 M, room temperature
Description: as §1, with “activity. […]” for “activity.”
as §3, with “specified. […]” for “specified.”
In this method, the activity is measured by colorimetric determination of hydrogen peroxide generated by an oxidation reaction. […] The oxidized ABTS develops a blue color, and therefore, by visual observation or measurement of absorbance at 420 nm, the oxidase activity can be detected. […]

OC[C@@H](O)[C@@H](O)[C@@H](O)[C@@H](O)CO [Allitol]
activity of the enzyme for the polyol (in words) [1]: low
Relative activity (%) [1]: 0.45%
reactivity as a substrate of the oxidase of the A strain [2]: does not show reactivity
reactivity as a substrate of the enzyme of the B strain [3]: uses all of D-sorbitol, D-mannitol, and allitol as a substrate

OC[C@@H](O)C(O)[C@H](O)CO [D-arabitol]
activity of the enzyme for the polyol (in words) [1]: high
Relative activity (%) [1]: 100%

O=C[C@H](O)[C@@H](O)[C@H](O)[C@H](O)CO [D-glucose]
reactivity as a substrate of the D-glucose oxidase of the C strain [4]: high substrate specificity for D-glucose

OC[C@@H](O)[C@@H](O)[C@H](O)[C@H](O)CO [D-mannitol]
activity of the enzyme for the polyol (in words) [1]: high
Relative activity (%) [1]: 79.0%
reactivity as a substrate of the oxidase of the A strain [2]: uses D-sorbitol and D-mannitol as a substrate
reactivity as a substrate of the enzyme of the B strain [3]: uses all of D-sorbitol, D-mannitol, and allitol as a substrate

OC[C@@H](O)[C@@H](O)[C@H](O)[C@@H](O)CO [D-sorbitol]
activity of the enzyme for the polyol (in words) [1]: high
Relative activity (%) [1]: 36.7%
reactivity as a substrate of the oxidase of the A strain [2]: uses D-sorbitol and D-mannitol as a substrate
reactivity as a substrate of the enzyme of the B strain [3]: uses all of D-sorbitol, D-mannitol, and allitol as a substrate

OC[C@@H](O)[C@H](O)[C@H](O)[C@H](O)CO [D-talitol]
activity of the enzyme for the polyol (in words) [1]: low
Relative activity (%) [1]: 0.3%

OC[C@@H](O)[C@@H](O)CO [Erythritol]
activity of the enzyme for the polyol (in words) [1]: high
Relative activity (%) [1]: 80.5%

OCC(O)CO [Glycerol]
Relative activity (%) [1]: 0.18%

OC[C@H](O)[C@H](O)[C@H](O)[C@@H](O)CO [L-talitol]
Relative activity (%) [1]: 0.3%

OC[C@@H](O)[C@@H](O)[C@@H](O)CO [Ribitol]
activity of the enzyme for the polyol (in words) [1]: low

OC[C@@H](O)[C@H](O)[C@@H](O)CO [Xylitol]
Relative activity (%) [1]: 1.2%
